This note sets out measurements from patent US10981926B2 (Janssen Pharmaceutica NV, priority 2016, dated 2021).

Common to all, as to type: cell-based
The target of assay [1] is T1, wild-type Androgen Receptor (AR-wt) (Homo sapiens (Human), UniProt P10275). Nature of the assay: LNCaP-AR-wt ANT reporter assay (antagonist mode). The conditions noted are these: for IC50: antagonist mode, pIC50 = −Log10(IC50 in Molar), read-out: LNCaP-AR-wt ANT pIC50 (converted); for Emax: maximum % inhibition of R1881 control response over the tested concentration range, read-out: LNCaP-AR-wt ANT MAX % Inh.
T1 sequence (P10275 whole entry): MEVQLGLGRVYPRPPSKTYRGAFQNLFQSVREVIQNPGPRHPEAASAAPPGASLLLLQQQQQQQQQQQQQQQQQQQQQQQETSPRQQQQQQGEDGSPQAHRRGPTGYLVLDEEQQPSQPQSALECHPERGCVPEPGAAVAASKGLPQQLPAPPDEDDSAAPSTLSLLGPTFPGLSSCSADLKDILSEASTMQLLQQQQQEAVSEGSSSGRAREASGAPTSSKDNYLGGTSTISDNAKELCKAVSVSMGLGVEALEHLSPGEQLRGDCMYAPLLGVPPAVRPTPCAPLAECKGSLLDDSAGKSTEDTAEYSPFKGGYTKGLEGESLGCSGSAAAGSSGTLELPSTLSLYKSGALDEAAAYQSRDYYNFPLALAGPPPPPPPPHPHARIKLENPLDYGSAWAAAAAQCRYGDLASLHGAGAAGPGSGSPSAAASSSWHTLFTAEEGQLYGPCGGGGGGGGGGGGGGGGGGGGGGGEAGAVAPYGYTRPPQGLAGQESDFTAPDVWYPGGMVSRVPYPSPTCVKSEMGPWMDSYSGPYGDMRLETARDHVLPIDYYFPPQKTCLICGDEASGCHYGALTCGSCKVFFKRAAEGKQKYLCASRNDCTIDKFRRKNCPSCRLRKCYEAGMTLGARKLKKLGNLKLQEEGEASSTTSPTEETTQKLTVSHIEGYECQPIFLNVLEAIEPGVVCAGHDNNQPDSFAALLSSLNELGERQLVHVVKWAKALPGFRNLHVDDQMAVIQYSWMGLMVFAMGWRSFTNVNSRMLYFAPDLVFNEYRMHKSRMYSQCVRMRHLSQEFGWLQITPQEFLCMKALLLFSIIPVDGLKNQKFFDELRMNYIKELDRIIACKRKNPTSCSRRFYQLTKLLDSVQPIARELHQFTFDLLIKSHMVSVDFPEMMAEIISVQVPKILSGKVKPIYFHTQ

The target in assay [2] is T1, wild-type Androgen Receptor (AR-wt). Put plainly: LNCaP-AR-wt AG reporter assay (agonist mode). The conditions noted are these: for EC50: agonist mode, pEC50 = −Log10(EC50 in Molar), read-out: LNCaP-AR-wt AG pEC50 (converted); for Emax: maximum % stimulation (agonist response) over the tested concentration range, read-out: LNCaP-AR-wt AG MAX % Stim.
Assay [3] has as its target T2, F876L mutant Androgen Receptor (AR-F876L) (Homo sapiens (Human), UniProt P10275, F877L). Nature of the assay: LNCaP-AR-F876L ANT reporter assay (antagonist mode). To be noted: for IC50: antagonist mode, pIC50 = −Log10(IC50 in Molar), read-out: LNCaP-AR-F876L ANT pIC50 (converted); for Emax: maximum % inhibition of R1881 control response over the tested concentration range, read-out: LNCaP-AR-F876L ANT MAX % Inh.

In assay [4] the target is T2, F876L mutant Androgen Receptor (AR-F876L). Put plainly: LNCaP-AR-F876L AG reporter assay (agonist mode). To be noted: for EC50: agonist mode, pEC50 = −Log10(EC50 in Molar), read-out: LNCaP-AR-F876L AG pEC50 (converted); for Emax: maximum % stimulation (agonist response) over the tested concentration range, read-out: LNCaP-AR-F876L AG MAX % Stim.

Where only a bound is given, the exact number is not on record here.

T2 sequence (P10275 whole entry F877L): as the sequence (P10275 whole entry) above, with F877L counted along it

In the case of `N#Cc1ncc(N2C(=O)C3(CCC3)N(c3ccc(OC4CCN(CC(O)CN)CC4)cc3)C2=S)cc1C(F)(F)F` (stereo not drawn) [Cpd 157, 5-[8-[4-[[1-(3-amino-2-hydroxy-propyl)-4-piperidyl]oxy]phenyl]-5-oxo-7-thioxo-6,8-diazaspiro[3.4]octan-6-yl]-3-(trifluoromethyl)pyridine-2-carbonitrile], the IC50 in assay [1] is 724 nM; in assay [3], 501 nM. The Emax was 102% in assay [1], -0.2% in assay [2], 99.8% in assay [3] and 0% in assay [4]. Besides, the EC50 in assay [2] and in assay [4] was more than 15100 nM throughout.

As for `N#Cc1ncc(N2C(=O)C3(CCC3)N(c3ccc4c(cnn4CCO)c3)C2=S)cc1C(F)(F)F` [Cpd 159, 5-[8-[1-(2-hydroxyethyl)indazol-5-yl]-5-oxo-7-thioxo-6,8-diazaspiro[3.4]octan-6-yl]-3-(trifluoromethyl)pyridine-2-carbonitrile], the IC50 in assay [1] is 1350 nM; in assay [3] it was 309 nM. The Emax in assay [1] was determined as 100%; in assay [2], 0.2%; in assay [3], 100%; in assay [4] it was 0.2%. Further, the EC50 in assay [2] and in assay [4] was more than 15100 nM each time.

As to `COCCn1ncc2ccc(N3C(=S)N(c4cnc(C#N)c(C(F)(F)F)c4)C(=O)C34CCC4)cc21` [Cpd 160, 5-[8-[1-(2-methoxyethyl)indazol-6-yl]-5-oxo-7-thioxo-6,8-diazaspiro[3.4]octan-6-yl]-3-(trifluoromethyl)pyridine-2-carbonitrile], the results for the IC50 in assay [1] and in assay [3] were 1230 nM and 708 nM, respectively. Moreover, the Emax in assay [1] came out at 103%; in assay [2], 0.1%; in assay [3], 101%; in assay [4], 0%. For the same compound, the EC50 in assay [2] and in assay [4] was more than 15100 nM each time.

For `N#Cc1ncc(N2C(=O)C3(CCC3)N(c3ccc4c(cnn4CCO)c3)C2=S)cc1Cl` [Cpd 163, 3-chloro-5-[8-[1-(2-hydroxyethyl)indazol-5-yl]-5-oxo-7-thioxo-6,8-diazaspiro[3.4]octan-6-yl]pyridine-2-carbonitrile], the IC50 in assay [1] is 724 nM; in assay [3], 288 nM. In addition, the Emax in assay [1] worked out at 100%; in assay [2], 0.4%; in assay [3], 99.3%; in assay [4], 0.1%. Moreover, the EC50 in assay [2] and in assay [4] was more than 15100 nM in each case.

As for `COc1cc(N2C(=O)C3(CCC3)N(c3ccc4nn(CCO)cc4c3)C2=S)cnc1C#N` [Cpd 164, 5-[8-[2-(2-hydroxyethyl)indazol-5-yl]-5-oxo-7-thioxo-6,8-diazaspiro[3.4]octan-6-yl]-3-methoxy-pyridine-2-carbonitrile], the IC50 was 537 nM in assay [1] and 295 nM in assay [3]. Moreover, the Emax in assay [1] worked out at 102%; in assay [2] it was 0.3%; in assay [3] it was 101%; in assay [4] it was 0%. Moreover, the EC50 in assay [2] and in assay [4] was more than 15100 nM each time.

For `N#Cc1ncc(N2C(=O)C3(CCC3)N(c3ccc(OC4CC5CC4CN5)nc3)C2=S)cc1C(F)(F)F` [Cpd 165, (R,S)-5-[8-[6-(2-azabicyclo[2.2.1]heptan-5-yloxy)-3-pyridyl]-5-oxo-7-thioxo-6,8-diazaspiro[3.4]octan-6-yl]-3-(trifluoromethyl)pyridine-2-carbonitrile], the results for the IC50 in assay [1] and in assay [3] were 324 nM and 316 nM, respectively. The Emax came to 101% in assay [1], 0.2% in assay [2], 100% in assay [3] and 0% in assay [4]. Also, the EC50 in assay [2] and in assay [4] was more than 15100 nM throughout.

As to `CN1CCC12CC(Oc1ccc(N3C(=S)N(c4cnc(C#N)c(C(F)(F)F)c4)C(=O)C34CCC4)cc1)C2` (stereo not drawn) [Cpd 166, 5-[8-[4-[(3-methyl-3-azaspiro[3.3]heptan-6-yl)oxy]phenyl]-5-oxo-7-thioxo-6,8-diazaspiro[3.4]octan-6-yl]-3-(trifluoromethyl)pyridine-2-carbonitrile], the results for the IC50 in assay [1] and in assay [3] were 331 nM and 200 nM, respectively. The Emax in assay [1] was 102%; in assay [2], 0.2%; in assay [3], 101%; in assay [4] it was 0.1%. Also, the EC50 in assay [2] and in assay [4] was more than 15100 nM each time.

As to `COc1cc(N2C(=O)C3(CCC3)N(c3ccc4c(cnn4CCO)c3)C2=S)cnc1C#N` [Cpd 167, 5-[8-[1-(2-hydroxyethyl)indazol-5-yl]-5-oxo-7-thioxo-6,8-diazaspiro[3.4]octan-6-yl]-3-methoxy-pyridine-2-carbonitrile], the IC50 in assay [1] is 832 nM; in assay [3] it was 288 nM. The Emax in assay [1] is 101%; in assay [2] it was -0.2%; in assay [3], 102%; in assay [4], 0%. In addition, the EC50 in assay [2] and in assay [4] was more than 15100 nM in each case.

For `Cn1ncc2cc(N3C(=S)N(c4cnc(C#N)c(Cl)c4)C(=O)C34CCC4)ccc21` [Cpd 168, 3-chloro-5-[8-(1-methylindazol-5-yl)-5-oxo-7-thioxo-6,8-diazaspiro[3.4]octan-6-yl]pyridine-2-carbonitrile], the IC50 in assay [1] was 95.5 nM; in assay [3] it was 145 nM. Also, the Emax turned out to be 101% in assay [1], 0% in assay [2], 99.3% in assay [3] and 0.8% in assay [4]. Besides, the EC50 in assay [2] and in assay [4] was more than 15100 nM throughout.

Turning to `COCCn1ncc2cc(N3C(=S)N(c4cnc(C#N)c(C(F)(F)F)c4)C(=O)C34CCC4)ccc21` [Cpd 170, 5-[8-[1-(2-methoxyethyl)indazol-5-yl]-5-oxo-7-thioxo-6,8-diazaspiro[3.4]octan-6-yl]-3-(trifluoromethyl)pyridine-2-carbonitrile], the IC50 was 589 nM in assay [1] and 309 nM in assay [3]. Also, the Emax in assay [1] stood at 101%; in assay [2], 0.2%; in assay [3] it was 102%; in assay [4], 0.1%. The EC50 in assay [2] and in assay [4] was more than 15100 nM throughout.

Turning to `COCCn1ncc2cc(N3C(=S)N(c4cnc(C#N)c(OC)c4)C(=O)C34CCC4)ccc21` [Cpd 173, 3-methoxy-5-[8-[1-(2-methoxyethyl)indazol-5-yl]-5-oxo-7-thioxo-6,8-diazaspiro[3.4]octan-6-yl]pyridine-2-carbonitrile], the IC50 in assay [1] was 437 nM; in assay [3], 186 nM. Moreover, the Emax in assay [1] turned out to be 100%; in assay [2], 0.4%; in assay [3], 100%; in assay [4], 0.1%. Moreover, the EC50 in assay [2] and in assay [4] was more than 15100 nM in each case.

Turning to `CN1CC2CC1CC2Oc1ccc(N2C(=S)N(c3cnc(C#N)c(C(F)(F)F)c3)C(=O)C23CCC3)cc1` [Cpd 176, (R,S)-5-[8-[4-[(2-methyl-2-azabicyclo[2.2.1]heptan-5-yl)oxy]phenyl]-5-oxo-7-thioxo-6,8-diazaspiro[3.4]octan-6-yl]-3-(trifluoromethyl)pyridine-2-carbonitrile], the IC50 in assay [1] was 479 nM; in assay [3], 269 nM. Besides, the Emax amounted to 104% in assay [1], 0.3% in assay [2], 101% in assay [3] and 0.1% in assay [4]. Also, the EC50 in assay [2] and in assay [4] was more than 15100 nM throughout.

In the case of `CN1CC2CC1CC2Oc1ccc(N2C(=S)N(c3cnc(C#N)c(C(F)(F)F)c3)C(=O)C23CCC3)cn1` [Cpd 177, (R,S)-5-[8-[6-[(2-methyl-2-azabicyclo[2.2.1]heptan-5-yl)oxy]-3-pyridyl]-5-oxo-7-thioxo-6,8-diazaspiro[3.4]octan-6-yl]-3-(trifluoromethyl)pyridine-2-carbonitrile], the IC50 is 525 nM in assay [1] and 457 nM in assay [3]. For the same compound, the Emax in assay [1] is 102%; in assay [2], 0.2%; in assay [3], 100%; in assay [4] it was 0.4%. For the same compound, the EC50 in assay [2] and in assay [4] was more than 15100 nM in each case.

Take `COCCn1cc2ccc(N3C(=S)N(c4cnc(C#N)c(C(F)(F)F)c4)C(=O)C34CCC4)cc2n1` [Cpd 179, 5-[8-[2-(2-methoxyethyl)indazol-6-yl]-5-oxo-7-thioxo-6,8-diazaspiro[3.4]octan-6-yl]-3-(trifluoromethyl)pyridine-2-carbonitrile]: the results for the IC50 in assay [1] and in assay [3] were 1230 nM and 468 nM, respectively. The Emax is 100% in assay [1], -0.2% in assay [2], 101% in assay [3] and -0.2% in assay [4]. Moreover, the EC50 in assay [2] and in assay [4] was more than 15100 nM each time.

In the case of `N#Cc1ncc(N2C(=O)C3(CCC3)N(c3ccc4c(cnn4C4CCNCC4)c3)C2=S)cc1Cl` [Cpd 182, 3-chloro-5-[5-oxo-8-[1-(4-piperidyl)indazol-5-yl]-7-thioxo-6,8-diazaspiro[3.4]octan-6-yl]pyridine-2-carbonitrile], the IC50 in assay [1] is 550 nM; in assay [3], 191 nM. Further, the Emax in assay [1] was 103%; in assay [2], 0%; in assay [3] it was 102%; in assay [4], 0.1%. Further, the EC50 in assay [2] and in assay [4] was more than 15100 nM throughout.
